From the NIST ThermoML archive (doi:10.1016/j.jct.2018.07.017)
± gives the expanded uncertainty stated by the source.

Legend:
[1] = Molar enthalpy of transition or fusion; conditions: Crystal; DSC
[2] = for vapor or sublimation pressure: Transpiration method

CC(C)(O)C(=O)O [2-hydroxy-2-methylpropanoic acid]
Molar enthalpy of transition or fusion [1]: 4.21 ± 0.143 kcal/mol | mass density ([2]; 293 K, 101.33 kPa, Crystal, Pycnometric method): 1240 ± 400 kg/m3 | vapor or sublimation pressure ([2]; 313.3 K, Crystal): 0.005081 ± 0.00037 kPa | vapor or sublimation pressure ([2]; 318.2 K, Crystal): 0.008221 ± 0.00057 kPa | vapor or sublimation pressure ([2]; 323.2 K, Crystal): 0.01418 ± 0.00095 kPa | vapor or sublimation pressure ([2]; 328.1 K, Crystal): 0.02187 ± 0.0014 kPa | vapor or sublimation pressure ([2]; 333.1 K, Crystal): 0.03606 ± 0.0024 kPa | vapor or sublimation pressure ([2]; 338.1 K, Crystal): 0.05555 ± 0.0036 kPa | vapor or sublimation pressure ([2]; 343.1 K, Crystal): 0.08884 ± 0.0057 kPa | vapor or sublimation pressure ([2]; 347.8 K, Crystal): 0.139 ± 0.0088 kPa | vapor or sublimation pressure ([2]; 356 K, Liquid): 0.2724 ± 0.017 kPa | vapor or sublimation pressure ([2]; 359.8 K, Liquid): 0.3463 ± 0.022 kPa | vapor or sublimation pressure ([2]; 363.7 K, Liquid): 0.4479 ± 0.028 kPa | vapor or sublimation pressure ([2]; 367.7 K, Liquid): 0.5693 ± 0.035 kPa | vapor or sublimation pressure ([2]; 369.3 K, Liquid): 0.6241 ± 0.039 kPa | vapor or sublimation pressure ([2]; 371.7 K, Liquid): 0.7211 ± 0.045 kPa | vapor or sublimation pressure ([2]; 373 K, Liquid): 0.7664 ± 0.048 kPa | vapor or sublimation pressure ([2]; 375.6 K, Liquid): 0.8814 ± 0.055 kPa | vapor or sublimation pressure ([2]; 377.1 K, Liquid): 0.9824 ± 0.061 kPa | vapor or sublimation pressure ([2]; 379.5 K, Liquid): 1.093 ± 0.068 kPa | vapor or sublimation pressure ([2]; 379.6 K, Liquid): 1.097 ± 0.068 kPa | Normal melting temperature ([2]; Crystal, DTA): 75 ± 1.1 °C
